Reference: patent US20230255943A1, “MMP-9 AND MMP-12 INHIBITION FOR TREATING SPINAL CORD INJURY OR RELATED INJURY TO NEUROLOGICAL TISSUE” (The University of Birmingham, priority 2020, published 2023)

Experiments:
[1] = tested on: other members of the enzyme family; test: Selectivity to other members of the enzyme family; format: biochemical, human; conditions: relative to MMP-9 and MMP-12
[2] = tested on: mice with DC crush injury; test: Horizontal ladder test (locomotor function) after DC injury in mice; format: in vivo, mouse
Description: (§1) Functional testing after DC lesion and treatment was carried out as described previously (N. D. Fagoe, C. L. Attwell, R. Eggers, L. Tuinenbreijer, D. Kouwenhoven, J. Verhaagen, M. R. Mason, Evaluation of Five Tests for Sensitivity to Functional Deficits following Cervical or Thoracic Dorsal Column Transection in the Rat. PLoS One 11, e0150141 (2016)).
Briefly, animals (n=18/group) were first trained to master traversing a horizontal ladder for 1 w before functional testing. Baseline parameters were established by performing tests at 2-3d before injury. Animals were then tested at 2d, 1 w, 2 w, 3 w, 4 w, 5 w and 6 w after DC injury+treatment. Experiments were performed by an observer masked to the treatment conditions in the same order and time of day with each test performed for 3 individual trials.
Horizontal ladder test: This tests the animals locomotor function and is performed on a 0.9-meter-long horizontal ladder with a diameter of 15.5 cm and randomly adjusted rungs with variable gaps of 3.5-5.0 cm. Animals were assessed traversing the ladder and the left and right rear paw slips were recorded along with the total number of steps and the mean error rate as: the number of slips/total number of steps.

[3] = tested on: rats with DC crush injury; test: Spinal cord water content after DC injury in rats; format: in vivo; conditions: rat DC injury, oral, 3 days
Description: DC crush injury was administered bilaterally at the T8 vertebral level as described previously (S. Surey, M. Berry, A. Logan, R. Bicknell, Z. Ahmed, Differential cavitation, angiogenesis and wound-healing responses in injured mouse and rat spinal cords. Neuroscience 275, 62-80 (2014); M. L. Read, S. Mir, R. Spice, R. J. Seabright, E. L. Suggate, Z. Ahmed, M. Berry, A. Logan, Profiling RNA interference (RNAi)-mediated toxicity in neural cultures for effective short interfering RNA design. J Gene Med 11, 523-534 (2009)). […]
The efficacy of oral AZD3342 in the DC injury model in adult Sprague-Dawley rat was also assessed. […]
The lesion site+3 mm either side for mice and the lesion site+5 mm either side for the rat DC model were dissected out and the water content of the spinal cord (as a measure of oedema) was determined at 3 days after DC and CC SCI, as described previously (S. Li, C. H. Tator, Effects of MK801 on evoked potentials, spinal cord blood flow and cord edema in acute spinal cord injury in rats. Spinal Cord 37, 820-832 (1999)). […] The percent water content was calculated as: water content (%)=[(wet weight-dry weight)/wet weight]×100%.

[4] = tested on: IL-1β, TNF-α and IL-6; test: Proinflammatory pain cytokines after DC injury in rats; format: in vivo; conditions: rat DC injury, oral
Description: (§2) The efficacy of oral AZD3342 in the DC injury model in adult Sprague-Dawley rat was also assessed. Animals were divided into 6 groups: (1), Sham (control); (2), DC crush injury+Vehicle; (3), DC crush injury+15 mg/kg AZD3342; (4), DC crush injury+75 mg/kg […]; (5), DC crush injury+375 mg/kg AZD3342; and (6), DC crush injury+Melatonin. Animals were dosed twice daily with oral AZD3342 or vehicle with the experimenters masked to the treatment conditions. These experiments were performed with n=6 rats/group and repeated on 2-3 independent occasions (total n=12-18 rats/group/test).
The lesion site+5 mm either side (DC and CC SCI, n=6 mice/rats/group, 2 independent repeats (total n=12 mice/rats/group)) was dissected and rapidly frozen in liquid N2 and stored at −80° C. until required. […] The levels of mRNA of MMP-9, MMP-12, IL-1β, TNF-α and IL-6 were determined using pre-validated mouse primer sequences from complimentary DNA prepared from extracted mRNA and qRT-PCR was performed using a LightCycler PCR machine (Roche, Burgess Hill, UK) (M. L. Read, S. Mir, R. Spice, R. J. Seabright, E. L. Suggate, Z. Ahmed, M. Berry, A. Logan, Profiling RNA interference (RNAi)-mediated toxicity in neural cultures for effective short interfering RNA design. J Gene Med 11, 523-534 (2009)). […]

[5] = tested on: rats with DC crush injury; test: Tape sensing and removal (sensory function) in rat DC model; format: in vivo; conditions: over 6 weeks
Description: as §2
as §1, with “(2016)). […]” for “(2016)).”
Tape removal test (sensory function): The tape removal test determines touch perception from the left hind paw. After holding animals with both hind-paws extended, the time it took for the animal to detect and remove a piece of tape of 15×15 mm (Kip Hochkrepp, Bocholt, Germany) affixed to the palm of the left hind-paw was recorded and used to calculate the mean sensing time.

| SMILES | selectivity to other members of the enzyme family [1] [fold] | locomotor function, 24-h delayed treatment ([2]; optimal doses, 24 h delay vs immediate) | improvement in locomotor function ([2]; oral) [%] | mean error ratio, ladder crossing test ([2]; oral, by 2 weeks after injury) | SCI-induced edema (spinal cord water content) [3] | expression of proinflammatory pain cytokines [4] | sensory function (tape sensing and removal) [5] |
| --- | --- | --- | --- | --- | --- | --- | --- |
| C[C@]1(CS(=O)(=O)N2CC=C(C#Cc3cnc(C4CC4)nc3)CC2)NC(=O)NC1=O [AZD1236] | > 350 | equally as effective as immediate delivery | 85 | indistinguishable from sham-treated animals | – | – | – |
| C[C@]1(CS(=O)(=O)N2CCC(Oc3ccc(Cl)cn3)CC2)NC(=O)NC1=O [AZD3342, (5S)-5-[4-(5-chloro-pyridin-2-yloxy)-piperidine-1-sulfonylmethyl]-5-methylimidazolidine-2,4-dione] | – | – | – | – | suppressed | significantly suppressed | significantly improved |
